Results reported in patent US20050065218A1, “Utilization of alverine, alone or in combination with tricyclic antidepressant or a specific serotonin reuptake inhibitor for the treatment of depression” (priority 2003, published 2005).
Values joined by “and” are separate entries in the source; they are usually repeats but may differ in a detail not shown here. Equal entries are not always repeated. “Also recorded” adds a separate entry of the source. Structures can show the parent of a compound that is named as a salt.

Experiments:
Format in all cases: in vivo
[1] = tested on: Swiss mice CD1; assay: forced swim test, Alverine administered orally to mice (Example 2); set-up: key to Dunnett test vs control group: * indicates a significant difference for p < 0.05 (Dunnett test); ns indicates an insignificant result; details: for immobility time, individual animals / immobility time, Mean: 60 minutes prior to the test; for immobility time, Mean: N = 10
[2] = tested on: Swiss mice CD1; assay: forced swim test, Alverine and imipramine administered intraperitoneally to mice (Example 3, first test); set-up: key to Dunnett test vs control group: * indicates a significant difference for p < 0.05 (Dunnett test); ns indicates an insignificant result; details: for immobility time, individual animals / immobility time, Mean: 30 minutes prior to the test; for immobility time, Mean: n = 10
Method: These are Swiss mice CD1 (CD-1® (ICR) IGS (Charles River France) weighing between 25 and 35 g. […] They are placed 15 to 20 per cage, over an acclimatising period of at least 5 days prior to the tests. They are identified by marking on the fur. […] The mice were divided into two test comprising six groups of 10 mice each. For the first test: The first group is the control group: it is treated only by excipient. The second group is treated with imipramine at a dose of 3 mg/kg The third group is treated with Alverine at a dose of 3 mg/kg The fourth group is treated with Alverine at a dose of 3 mg/kg and imipramine at a dose of 3 mg/kg The fifth group is treated with imipramine at a dose of 10 mg/kg […] The doses are expressed in terms of free active substances. The test substances are prepared extemporaneously in a saline solution. The treatments are co-administered 30 minutes prior to the test in a coded and random order intraperitoneally with a volume of 10 ml/kg (5 ml/kg for each administration). Thirty minutes following administration the six groups of mice are subjected to the forced swim test, in a vertical Plexiglas cylinder (height 24 cm, diameter 9 cm) containing water (height 6 cm, temperature 18-22° C.). The total duration of immobility is measured over the last four minutes of the test, six minutes in total. A mouse is deemed immobile when it ceases struggling and floats in the water without movements superfluous to those allowing it to keep its head above water. A drop in immobility time is the reflection of an antidepressant effect. The forced swim test is a pre-clinical behavioural model, which has good predictive validity and is widely employed for determining the efficacy of antidepressant medications (Borsini and Meli, 1988). The results are expressed in total duration of immobility in seconds and as a percentage of variation of the total duration of immobility calculated from the average value of the control group. The statistical significance between two treated groups is determined by using a Student test (P<0.05) The data are analysed using <<SigmaStat>> software.

[3] = tested on: Swiss mice CD1; assay: observation of secondary effects in mice treated orally (Example 2); details: treated orally, 10, 30, 100 mg/kg
[4] = Alverine citrate 10 mg/kg orally
[5] = Alverine citrate 30 mg/kg orally
[6] = Alverine citrate 100 mg/kg orally
[7] = Alverine 3 mg/kg intraperitoneally
[8] = Alverine 10 mg/kg intraperitoneally

Which “% of variation of immobility time vs control group” value (from here on “% of variation of immobility time”) [1, 4] does the source give for `CCN(CCCc1ccccc1)CCCc1ccccc1` [Alverine citrate, N-ethyl-3,3′-diphenyldipropylamine] here?
The value was −30%.

What about the “Dunnett test vs control group” value [1, 4] of the same molecule?
The value was “ns”.

What about the “immobility time, individual animals” value [1, 4] of the same molecule?
The value was 86 s and 95 s and 104 s and 111 s and 126 s and 108 s and 78 s and 115 s and 106 s and 113 s.

What about the “immobility time, Mean” value [1, 4] of the same molecule?
The value was 104.2 s.

What about the “% of variation of immobility time” value [1, 5] of the same molecule?
The value was −43%.

And the “Dunnett test vs control group” value [1, 5]?
The value was “* (* indicates a significant difference for p < 0.05 (Dunnett test))”.

And the “immobility time, individual animals” value [1, 5]?
Its value is 104 sec and 80 sec and 64 sec and 70 sec and 105 sec (3×) and 41 sec and 63 sec and 113 sec.

And the “immobility time, Mean” value [1, 5]?
Its value is 85.0 s.

And the “% of variation of immobility time” value [1, 6]?
The value was −60%.

And the “Dunnett test vs control group” value [1, 6]?
Its value is “* (* indicates a significant difference for p < 0.05 (Dunnett test))”.

What about the “immobility time, individual animals” value [1, 6] of the same molecule?
The value was 52 s and 129 s and 67 s and 6 s and 105 s and 75 s and 81 s and 5 s and 37 s and 32 s.

And the “immobility time, Mean” value [1, 6]?
The value was 58.9 s.

And the “antidepressant effect (in words)” value ([1]; administered orally, 10 to 100 mg/kg)?
The value was “antidepressant effect related to the dose; also recorded: significant antidepressant effect in mice”.

What about the “% of variation of immobility time” value [2, 7] of the same molecule?
The value was −30%.

And the “Dunnett test vs control group” value [2, 7]?
The value was “ns”.

And the “immobility time, individual animals” value [2, 7]?
The value was 108 s and 134 s and 113 s and 65 s and 85 s and 73 s and 79 s and 125 s and 95 s and 140 s.

And the “immobility time, Mean” value [2, 7]?
Its value is 101.7 s.

And the “% of variation of immobility time” value [2, 8]?
The value was −70%.

And the “Dunnett test vs control group” value [2, 8]?
The value was “* (* indicates a significant difference for p < 0.05 (Dunnett test))”.

And the “immobility time, individual animals” value [2, 8]?
Its value is 28 s and 10 s and 1 s and 74 s and 22 s and 70 s and 69 s and 67 s and 42 s and 57 s.

And the “immobility time, Mean” value [2, 8]?
The value was 44.0 s.

What about the “decrease in the duration of immobilisation as compared to the control group (in words)” value ([2]; tested alone at 3 mg/kg intraperitoneally) of the same molecule?
The value was “statistically insignificant decrease”.

What about the secondary effect [3] of the same molecule?
The secondary effect was “no secondary effect was observed”.
